Experimental data from article PMC10764104, “Discovery of Molecular Glue Degraders via Isogenic Morphological Profiling” (ACS Chemical Biology, 2023).

Target: T1, recombinant DDB1-CRBN (Homo sapiens, UniProt Q96SW2)
T1 construct: His; made in house; host or cells: High Five insect cells (baculovirus made and propagated in SF9 cells)
Assay: Fluorescence polarization-based competition assay for CRBN binding
Details: 200 nM CRBN-DDB1, 20 nM pomalidomide-fluorescein tracer 16, triplicates; read-out: FP_CRBN_binding: CRBN binding affinity, EC50
Experimental: Prior to screening the compound library in the isogenic CPA, we assessed their CRBN binding affinities using a fluorescence-polarization-based competition assay with recombinant DDB1-CRBN and the fluorescent tracer 16 (Figure S2). […] We also assessed the cytotoxicity of the CRBN binders in RKO wild-type (WT) cells to determine the appropriate treatment concentration. […]
Fluorescence Polarization‐based competition assay
Fluorescence Polarization assays were performed in 384‐well, Low Volume, Black, Round Bottom, Polystyrene Nonbinding surface Microplates (Corning, #4514). The test compounds were incubated with 200 nM CRBN‐DDB1 and 20 nM Pomalidomide‐fluorescein tracer 16 in 50 mM Tris‐HCl pH 7.5, 200 mM NaCl, 1 mM DTT, 0.02% Triton X‐ 100, and 0.1 µg/µL Bovine Serum Albumin (Sigma Aldrich, #A7030) in a total volume of 25 µL. Fluorescence polarization values were determined with a PerkinElmer Envision reader with FITC FP dual mirror and FITC FP 480 excitation filter and FITC FP 535 emission filters. Fluorescence polarization values of a 10x serial dilution (10 nM to 100 µM) of the test compounds were determined in triplicates. EC50 values were calculated with GraphPad Prism software (version 10.0.2) with a non‐linear fit function (4PL sigmoidal curve fit) adjusting the bottom constrain to the FP value of free tracer. […]

SMILES	EC50
CC1(C)CN(S(=O)(=O)Oc2cccc(Nc3cccc4c3C(=O)N(C3CCC(=O)NC3=O)C4=O)c2)CC2(CCOC2)O1 (stereo not drawn) [FL3-8]	0.911 µM
CC1c2cccn2CCN1S(=O)(=O)Oc1cccc(Nc2ccc3c(c2)C(=O)N(C2CCC(=O)NC2=O)C3=O)c1 (stereo not drawn) [FL1-19]	0.898 µM
O=C1CCC(N2C(=O)c3cccc(Nc4cccc(OS(=O)(=O)N5CCC(c6ccco6)C5)c4)c3C2=O)C(=O)N1 (stereo not drawn) [FL3-12]	2.7 µM
O=C1CCC(c2cccc(OS(=O)(=O)N3C[C@@H](F)[C@H](F)C3)c2)C(=O)N1 (stereo partly drawn) [FL6-10]	1.14 µM
CC1c2cc(F)ccc2CCN1S(=O)(=O)Oc1ccc(Nc2ccc3c(c2)C(=O)N(C2CCC(=O)NC2=O)C3=O)cc1 (stereo not drawn) [FL2-17]	1.29 µM
O=C1CCC(N2C(=O)c3cccc(Nc4ccc(OS(=O)(=O)N5CCC(c6ccco6)C5)cc4)c3C2=O)C(=O)N1 (stereo not drawn) [FL4-12]	4.55 µM
O=C1CCC(N2C(=O)c3cccc(Nc4ccc(OS(=O)(=O)N5CCC(c6ccncc6)CC5)cc4)c3C2=O)C(=O)N1 (stereo not drawn) [FL4-16]	0.971 µM
CN(C1CC1)S(=O)(=O)Oc1ccc(Nc2ccc3c(c2)C(=O)N(C2CCC(=O)NC2=O)C3=O)cc1 (stereo not drawn) [FL2-21]	1.15 µM
C[C@@H]1C[C@H](C)CN(S(=O)(=O)Oc2cccc(C3CCC(=O)NC3=O)c2)C1 (stereo partly drawn) [FL6-6]	0.961 µM
CN(C1CC1)S(=O)(=O)Oc1cccc(C2CCC(=O)NC2=O)c1 (stereo not drawn) [FL6-21]	1.07 µM
O=C1CCC(c2ccc(OS(=O)(=O)N3CCC(c4ccncc4)CC3)cc2)C(=O)N1 (stereo not drawn) [FL5-16]	4.22 µM
CC1c2cccn2CCN1S(=O)(=O)Oc1ccc(C2CCC(=O)NC2=O)cc1 (stereo not drawn) [FL5-19]	0.94 µM
C[C@@H]1C[C@H](C)CN(S(=O)(=O)Oc2ccc(Nc3ccc4c(c3)C(=O)N(C3CCC(=O)NC3=O)C4=O)cc2)C1 (stereo partly drawn) [FL2-6]	4.22 µM
CN(Cc1ccc2c(c1)OCO2)S(=O)(=O)Oc1cccc(Nc2cccc3c2C(=O)N(C2CCC(=O)NC2=O)C3=O)c1 (stereo not drawn) [FL3-20]	1.57 µM
CN(Cc1ncnn1C)S(=O)(=O)Oc1ccc(C2CCC(=O)NC2=O)cc1 (stereo not drawn) [FL5-11]	1.27 µM
CC1(C)CN(S(=O)(=O)Oc2ccc(Nc3ccc4c(c3)C(=O)N(C3CCC(=O)NC3=O)C4=O)cc2)CC2(CCOC2)O1 (stereo not drawn) [FL2-8]	2.59 µM
CC(C)(O)C1CCN(S(=O)(=O)Oc2ccc(C3CCC(=O)NC3=O)cc2)C1 (stereo not drawn) [FL5-4]	0.948 µM
C[C@@H]1C[C@H](C)CN(S(=O)(=O)Oc2cccc(Nc3ccc4c(c3)C(=O)N(C3CCC(=O)NC3=O)C4=O)c2)C1 (stereo partly drawn) [FL1-6]	3.03 µM
CN(Cc1ccc2c(c1)OCO2)S(=O)(=O)Oc1ccc(Nc2cccc3c2C(=O)N(C2CCC(=O)NC2=O)C3=O)cc1 (stereo not drawn) [FL4-20]	1.72 µM
CN(Cc1ccc2c(c1)OCO2)S(=O)(=O)Oc1ccc(Nc2ccc3c(c2)C(=O)N(C2CCC(=O)NC2=O)C3=O)cc1 (stereo not drawn) [FL2-20]	2.62 µM
CC1(C)CN(S(=O)(=O)Oc2ccc(Nc3cccc4c3C(=O)N(C3CCC(=O)NC3=O)C4=O)cc2)CC2(CCOC2)O1 (stereo not drawn) [FL4-8]	1.96 µM
CN(C1CC1)S(=O)(=O)Oc1cccc(Nc2ccc3c(c2)C(=O)N(C2CCC(=O)NC2=O)C3=O)c1 (stereo not drawn) [FL1-21]	1.05 µM
CN(Cc1ncc(C2CC2)o1)S(=O)(=O)Oc1ccc(Nc2cccc3c2C(=O)N(C2CCC(=O)NC2=O)C3=O)cc1 (stereo not drawn) [FL4-14]	0.996 µM
CC1c2cccn2CCN1S(=O)(=O)Oc1ccc(Nc2ccc3c(c2)C(=O)N(C2CCC(=O)NC2=O)C3=O)cc1 (stereo not drawn) [FL2-19]	1.05 µM
CC1(C)CN(S(=O)(=O)Oc2cccc(C3CCC(=O)NC3=O)c2)CC2(CCOC2)O1 (stereo not drawn) [FL6-8]	1.34 µM
O=C1CCC(N2C(=O)c3ccc(Nc4ccc(OS(=O)(=O)N5C[C@@H](F)[C@H](F)C5)cc4)cc3C2=O)C(=O)N1 (stereo partly drawn) [FL2-10]	1.27 µM
CC1(C)CN(S(=O)(=O)Oc2cccc(Nc3ccc4c(c3)C(=O)N(C3CCC(=O)NC3=O)C4=O)c2)CC2(CCOC2)O1 (stereo not drawn) [FL1-8]	0.93 µM
CN(C)c1ncc(CN(C)S(=O)(=O)Oc2ccc(Nc3cccc4c3C(=O)N(C3CCC(=O)NC3=O)C4=O)cc2)cn1 (stereo not drawn) [FL4-18]	1.61 µM
C[C@@H]1C[C@H](C)CN(S(=O)(=O)Oc2cccc(Nc3cccc4c3C(=O)N(C3CCC(=O)NC3=O)C4=O)c2)C1 (stereo partly drawn) [FL3-6]	2.77 µM
Cc1cn2c(n1)CN(S(=O)(=O)Oc1cccc(C3CCC(=O)NC3=O)c1)CC2 (stereo not drawn) [FL6-13]	1.08 µM

Further compounds by falling EC50, results first:

EC50	SMILES
0.882 µM	CN(Cc1ncc(C2CC2)o1)S(=O)(=O)Oc1cccc(Nc2cccc3c2C(=O)N(C2CCC(=O)NC2=O)C3=O)c1 (stereo not drawn) [FL3-14]
0.874 µM	CC1c2cccn2CCN1S(=O)(=O)Oc1cccc(C2CCC(=O)NC2=O)c1 (stereo not drawn) [FL6-19]
0.872 µM	CN(C)c1ncc(CN(C)S(=O)(=O)Oc2ccc(Nc3ccc4c(c3)C(=O)N(C3CCC(=O)NC3=O)C4=O)cc2)cn1 (stereo not drawn) [FL2-18]
0.864 µM	CC1(C)CN(S(=O)(=O)Oc2ccc(C3CCC(=O)NC3=O)cc2)CCS1(=O)=O (stereo not drawn) [FL5-7]
0.837 µM	CN(Cc1ncc(C2CC2)o1)S(=O)(=O)Oc1cccc(C2CCC(=O)NC2=O)c1 (stereo not drawn) [FL6-14]
0.83 µM	O=C1CCC(N2C(=O)c3cccc(Nc4ccc(OS(=O)(=O)N5C[C@@H](F)[C@H](F)C5)cc4)c3C2=O)C(=O)N1 (stereo partly drawn) [FL4-10]
0.803 µM	CC1c2cc(F)ccc2CCN1S(=O)(=O)Oc1cccc(C2CCC(=O)NC2=O)c1 (stereo not drawn) [FL6-17]
0.794 µM	CN(C)c1ncc(CN(C)S(=O)(=O)Oc2cccc(C3CCC(=O)NC3=O)c2)cn1 (stereo not drawn) [FL6-18]
0.775 µM	CN(Cc1ccc2c(c1)OCO2)S(=O)(=O)Oc1ccc(C2CCC(=O)NC2=O)cc1 (stereo not drawn) [FL5-20]
0.77 µM	CC(C)(O)C1CCN(S(=O)(=O)Oc2ccc(Nc3ccc4c(c3)C(=O)N(C3CCC(=O)NC3=O)C4=O)cc2)C1 (stereo not drawn) [FL2-4]
0.742 µM	CC1c2cccn2CCN1S(=O)(=O)Oc1cccc(Nc2cccc3c2C(=O)N(C2CCC(=O)NC2=O)C3=O)c1 (stereo not drawn) [FL3-19]
0.741 µM	CC1(C)CN(S(=O)(=O)Oc2ccc(Nc3cccc4c3C(=O)N(C3CCC(=O)NC3=O)C4=O)cc2)CCS1(=O)=O (stereo not drawn) [FL4-7]
0.688 µM	CC(C)(O)C1CCN(S(=O)(=O)Oc2ccc(Nc3cccc4c3C(=O)N(C3CCC(=O)NC3=O)C4=O)cc2)C1 (stereo not drawn) [FL4-4]
0.687 µM	CC1c2cccn2CCN1S(=O)(=O)Oc1ccc(Nc2cccc3c2C(=O)N(C2CCC(=O)NC2=O)C3=O)cc1 (stereo not drawn) [FL4-19]
0.675 µM	O=C1CCC(N2C(=O)c3ccc(Nc4ccc(OS(=O)(=O)N5CC(CCO)C5)cc4)cc3C2=O)C(=O)N1 (stereo not drawn) [FL2-2]
0.645 µM	O=C1CCC(c2cccc(OS(=O)(=O)N3CCC(c4ccncc4)CC3)c2)C(=O)N1 (stereo not drawn) [FL6-16]
0.622 µM	CN(Cc1ccc2c(c1)OCO2)S(=O)(=O)Oc1cccc(C2CCC(=O)NC2=O)c1 (stereo not drawn) [FL6-20]
0.617 µM	CN(Cc1ncnn1C)S(=O)(=O)Oc1ccc(Nc2ccc3c(c2)C(=O)N(C2CCC(=O)NC2=O)C3=O)cc1 (stereo not drawn) [FL2-11]

EC50	SMILES
0.6 µM	CN(Cc1ncc(C2CC2)o1)S(=O)(=O)Oc1ccc(C2CCC(=O)NC2=O)cc1 (stereo not drawn) [FL5-14]
0.582 µM	O=C1CCC(N2C(=O)c3cccc(Nc4cccc(OS(=O)(=O)N5C[C@@H](F)[C@H](F)C5)c4)c3C2=O)C(=O)N1 (stereo partly drawn) [FL3-10]
0.57 µM	O=C1CCC(c2cccc(OS(=O)(=O)N3CCC(c4ccco4)C3)c2)C(=O)N1 (stereo not drawn) [FL6-12]
0.538 µM	CN(Cc1ncnn1C)S(=O)(=O)Oc1ccc(Nc2cccc3c2C(=O)N(C2CCC(=O)NC2=O)C3=O)cc1 (stereo not drawn) [FL4-11]
0.522 µM	CC1(C)CN(S(=O)(=O)Oc2cccc(Nc3ccc4c(c3)C(=O)N(C3CCC(=O)NC3=O)C4=O)c2)CCS1(=O)=O (stereo not drawn) [FL1-7]
0.52 µM	CN(Cc1ccc2[nH]nnc2c1)S(=O)(=O)Oc1cccc(C2CCC(=O)NC2=O)c1 (stereo not drawn) [FL6-15]
0.502 µM	CN(Cc1ccc2[nH]nnc2c1)S(=O)(=O)Oc1ccc(C2CCC(=O)NC2=O)cc1 (stereo not drawn) [FL5-15]
0.481 µM	CC(C)(O)C1CCN(S(=O)(=O)Oc2cccc(Nc3ccc4c(c3)C(=O)N(C3CCC(=O)NC3=O)C4=O)c2)C1 (stereo not drawn) [FL1-4]
0.472 µM	Cc1cn2c(n1)CN(S(=O)(=O)Oc1cccc(Nc3cccc4c3C(=O)N(C3CCC(=O)NC3=O)C4=O)c1)CC2 (stereo not drawn) [FL3-13]
0.458 µM	O=C1CCC(N2C(=O)c3ccc(Nc4ccc(OS(=O)(=O)N5CCOCC5)cc4)cc3C2=O)C(=O)N1 (stereo not drawn) [FL2-5]
0.449 µM	CN(Cc1ncnn1C)S(=O)(=O)Oc1cccc(Nc2cccc3c2C(=O)N(C2CCC(=O)NC2=O)C3=O)c1 (stereo not drawn) [FL3-11]
0.446 µM	CC(C)(O)C1CCN(S(=O)(=O)Oc2cccc(Nc3cccc4c3C(=O)N(C3CCC(=O)NC3=O)C4=O)c2)C1 (stereo not drawn) [FL3-4]
0.445 µM	O=C1CCC(N2C(=O)c3cccc(Nc4ccc(OS(=O)(=O)N5CC6(CNC(=O)N6)C5)cc4)c3C2=O)C(=O)N1 (stereo not drawn) [FL4-9]
0.408 µM	O=C1CCC(N2C(=O)c3cccc(Nc4cccc(OS(=O)(=O)N5CC(CCO)C5)c4)c3C2=O)C(=O)N1 (stereo not drawn) [FL3-2]
0.37 µM	CC(O)CN(C)S(=O)(=O)Oc1ccc(Nc2cccc3c2C(=O)N(C2CCC(=O)NC2=O)C3=O)cc1 (stereo not drawn) [FL4-1]
0.348 µM	CC1(C)CN(S(=O)(=O)Oc2cccc(Nc3cccc4c3C(=O)N(C3CCC(=O)NC3=O)C4=O)c2)CCS1(=O)=O (stereo not drawn) [FL3-7]
0.321 µM	C[C@@H](O)CN(C)S(=O)(=O)Oc1cccc(Nc2ccc3c(c2)C(=O)N(C2CCC(=O)NC2=O)C3=O)c1 (stereo partly drawn) [FL1-1]
0.301 µM	O=C1CCC(N2C(=O)c3ccc(Nc4cccc(OS(=O)(=O)N5CCOCC5)c4)cc3C2=O)C(=O)N1 (stereo not drawn) [FL1-5]
